From patent US20250368664A1, “SURFACTANTS HAVING PEFA COMPOUNDS AND METHODS OF USE THEREOF” (Ruby Bio Inc., priority 2022, published 2025)

Assay: Solubility of nonionic surfactant in SDBS
Type: physicochemical
Settings: in combination with SDBS at the stated ratio

solubility in SDBS: insoluble
Substance: cetearyl glucoside [CGlucoside]
